Laboratory results as given in patent publication US20250312497A1, “METHOD OF TREATING PROSTATE CANCER” (Novartis AG, priority 2022, published 2025).
Where “and” joins values, the source holds several entries; their conditions need not be identical. Identical values can stand only once.

Tested on: PSMA-positive mCRPC participants
Assay: PSMAfore phase III: adverse events, serious adverse events, safety topics and deaths (safety set)
Type: in vivo, human
Conditions: for AEs leading to discontinuation, Treatment-related / Grade≥3 AEs, Treatment-related / Serious AEs, Treatment-related: ARDT prior to crossover
[1] = DCO 2 Oct 2022, most common AEs (>10% in either arm)
[2] = DCO 2 Oct 2022, safety set, All Grades
[3] = DCO 2 Oct 2022, safety set, Grade >=3
[4] = DCO 2 Oct 2022, safety set, preferred term
[5] = DCO 2 Oct 2022, safety set, system organ class
[6] = DCO 21 Jun 2023, most common AEs by PT (>10% in either arm)
[7] = DCO 21 Jun 2023, safety set, All Grades
[8] = DCO 21 Jun 2023, safety set, Grade >=3
[9] = Safety set, [[…]Lu]Lu-PSMA-617 N = 227, ARDT N = 232
[10] = Safety set, [[…]Lu]Lu-PSMA-617 N = 227, ARDT N = 232 (prior to crossover), CTCAE V5.0

O=C([O-])CN1CCN(CC(=O)[O-])CCN(CC(=O)NCC2CCC(C(=O)N[C@@H](Cc3ccc4ccccc4c3)C(=O)NCCCC[C@H](NC(=O)N[C@@H](CCC(=O)O)C(=O)O)C(=O)O)CC2)CCN(CC(=O)[O-])CC1.[177Lu+3] (some centres unmarked) [[177Lu]Lu-PSMA-617, lutetium (177Lu) vipivotide tetraxetan]
Fatal serious AEs (DCO 2 Oct 2022): Fatal serious AEs: 1.8% in [177Lu]Lu-PSMA-
death during the study due to study indication (DCO 2 Oct 2022): 4.4%
most frequent serious adverse event: urinary tract infection (DCO 2 Oct 2022): 1.8%
on-treatment deaths due to Study indication (DCO 2 Oct 2022): 0%
subjects who received at least one dose and died during the study (DCO 2 Oct 2022): 18 (8%) n (%)
AEs leading to discontinuation, Treatment-related (DCO 2 Oct 2022): 1.8%
Grade≥3 AEs, Treatment-related (DCO 2 Oct 2022): 6.6%
Serious AEs, Treatment-related (DCO 2 Oct 2022): 2.2%
Anaemia [1]: 16.8%
Arthralgia [1]: 11.5%
Asthenia [1]: 23.9%
Back pain [1]: 7.1%
COVID-19 [1]: 11.1%
Constipation [1]: 15.5%
Decreased appetite [1]: 12.8%
Diarrhoea [1]: 12.4%
Dry mouth [1]: 44.7%
Fatigue [1]: 18.1%
Nausea [1]: 25.2%
On-treatment deaths: Number of subjects who died (DCO 2 Oct 2022, safety set): 4 (1.8%) n (%) and 4 (1.8) n (%)
On-treatment deaths: Other (DCO 2 Oct 2022, safety set): 4 (1.8) n (%)
On-treatment deaths: Study indication (DCO 2 Oct 2022, safety set): 0 n (%)
AE preferred term: Anaemia [2]: 38 (16.8) n (%)
AE preferred term: Arthralgia [2]: 26 (11.5) n (%)
AE preferred term: Asthenia [2]: 54 (23.9) n (%)
AE preferred term: Back pain [2]: 16 (7.1) n (%)
AE preferred term: COVID-19 [2]: 25 (11.1) n (%)
AE preferred term: Constipation [2]: 35 (15.5) n (%)
AE preferred term: Decreased appetite [2]: 29 (12.8) n (%)
AE preferred term: Diarrhoea [2]: 28 (12.4) n (%)
AE preferred term: Dry mouth [2]: 101 (44.7) n (%)
AE preferred term: Fatigue [2]: 41 (18.1) n (%)
AE preferred term: Nausea [2]: 57 (25.2) n (%)
Adverse events (subjects with at least one event) [2]: 202 (89.4) n (%)
Adverse events leading to discontinuation [2]: 9 (4.0) n (%)
Adverse events leading to discontinuation, Treatment-related [2]: 4 (1.8) n (%)
Adverse events leading to dose adjustment [2]: 5 (2.2) n (%)
Adverse events leading to dose interruption [2]: 16 (7.1) n (%)
Adverse events requiring additional therapy [2]: 121 (53.5) n (%)
Adverse events, Treatment-related [2]: 170 (75.2) n (%)
Fatal serious adverse events [2]: 4 (1.8) n (%)
Fatal serious adverse events, Treatment-related [2]: 0 n (%)
Safety topic: Dry eye [2]: 6 (2.7) n (%)
Safety topic: Dry mouth [2]: 101 (44.7) n (%)
Safety topic: Fractures [2]: 3 (1.3) n (%)
Safety topic: Hepatotoxicity [2]: 20 (8.8) n (%)
Safety topic: Intracranial haemorrhage [2]: 2 (0.9) n (%)
Safety topic: Myelosuppression [2]: 56 (24.8) n (%)
Safety topic: QT prolongation [2]: 2 (0.9) n (%)
Safety topic: Radiotoxicity including inadvertent exposure [2]: 0 n (%)
Safety topic: Renal toxicity [2]: 11 (4.9) n (%)
Safety topic: Second primary malignancies [2]: 3 (1.3) n (%)
Serious AE preferred term: Anaemia [2]: 2 (0.9) n (%)
Serious AE preferred term: Haematuria [2]: 0 n (%)
Serious AE preferred term: Pain [2]: 1 (0.4) n (%)
Serious AE preferred term: Spinal cord compression [2]: 2 (0.9) n (%)
Serious AE preferred term: Urinary retention [2]: 1 (0.4) n (%)
Serious AE preferred term: Urinary tract infection [2]: 4 (1.8) n (%)
Serious adverse events (subjects with at least one event) [2]: 35 (15.5) n (%)
Serious adverse events, Treatment-related [2]: 5 (2.2) n (%)
AE preferred term: Anaemia [3]: 10 (4.4) n (%)
AE preferred term: Arthralgia [3]: 0 n (%)
AE preferred term: Asthenia [3]: 1 (0.4) n (%)
AE preferred term: Back pain [3]: 2 (0.9) n (%)
AE preferred term: COVID-19 [3]: 1 (0.4) n (%)
AE preferred term: Constipation [3]: 1 (0.4) n (%)
AE preferred term: Decreased appetite [3]: 0 n (%)
AE preferred term: Diarrhoea [3]: 0 n (%)
AE preferred term: Dry mouth [3]: 1 (0.4) n (%)
AE preferred term: Fatigue [3]: 0 n (%)
AE preferred term: Nausea [3]: 0 n (%)
Adverse events (subjects with at least one event) [3]: 53 (23.5) n (%)
Adverse events leading to discontinuation [3]: 6 (2.7) n (%)
Adverse events leading to discontinuation, Treatment-related [3]: 3 (1.3) n (%)
Adverse events leading to dose adjustment [3]: 1 (0.4) n (%)
Adverse events leading to dose interruption [3]: 9 (4.0) n (%)
Adverse events requiring additional therapy [3]: 34 (15.0) n (%)
Adverse events, Treatment-related [3]: 15 (6.6) n (%)
Fatal serious adverse events [3]: 4 (1.8) n (%)
Fatal serious adverse events, Treatment-related [3]: 0 n (%)
Safety topic: Dry eye [3]: 0 n (%)
Safety topic: Dry mouth [3]: 1 (0.4) n (%)
Safety topic: Fractures [3]: 1 (0.4) n (%)
Safety topic: Hepatotoxicity [3]: 8 (3.5) n (%)
Safety topic: Intracranial haemorrhage [3]: 1 (0.4) n (%)
Safety topic: Myelosuppression [3]: 19 (8.4) n (%)
Safety topic: QT prolongation [3]: 1 (0.4) n (%)
Safety topic: Radiotoxicity including inadvertent exposure [3]: 0 n (%)
Safety topic: Renal toxicity [3]: 2 (0.9) n (%)
Safety topic: Second primary malignancies [3]: 1 (0.4) n (%)
Serious AE preferred term: Anaemia [3]: 1 (0.4) n (%)
Serious AE preferred term: Haematuria [3]: 0 n (%)
Serious AE preferred term: Pain [3]: 1 (0.4) n (%)
Serious AE preferred term: Spinal cord compression [3]: 2 (0.9) n (%)
Serious AE preferred term: Urinary retention [3]: 1 (0.4) n (%)
Serious AE preferred term: Urinary tract infection [3]: 3 (1.3) n (%)
Serious adverse events (subjects with at least one event) [3]: 30 (13.3) n (%)
Serious adverse events, Treatment-related [3]: 4 (1.8) n (%)
On-treatment deaths: COVID-19 pneumonia [4]: 1 (0.4) n (%)
On-treatment deaths: Cardiac arrest [4]: 1 (0.4) n (%)
On-treatment deaths: Coma [4]: 0 n (%)
On-treatment deaths: Dyspnoea [4]: 0 n (%)
On-treatment deaths: Intestinal ischaemia [4]: 1 (0.4) n (%)
On-treatment deaths: Sepsis [4]: 1 (0.4) n (%)
On-treatment deaths: Cardiac disorders [5]: 1 (0.4) n (%)
On-treatment deaths: Gastrointestinal disorders [5]: 1 (0.4) n (%)
On-treatment deaths: Infections and infestations [5]: 2 (0.9) n (%)
On-treatment deaths: Nervous system disorders [5]: 0 n (%)
On-treatment deaths: Respiratory, thoracic and mediastinal disorders [5]: 0 n (%)
AEs leading to discontinuation, Treatment-related (DCO 21 Jun 2023): 3.1%
Grade≥3 AEs, Treatment-related (DCO 21 Jun 2023): 11.0%
Serious AEs, Treatment-related (DCO 21 Jun 2023): 3.1%
Anaemia [6]: 24.2%
Arthralgia [6]: 18.9%
Asthenia [6]: 31.7%
Back pain [6]: 12.3%
COVID-19 [6]: 16.3%
Constipation [6]: 22.0%
Decreased appetite [6]: 21.1%
Diarrhoea [6]: 16.3%
Dry mouth [6]: 57.3%
Fatigue [6]: 22.9%
Nausea [6]: 31.3%
Oedema peripheral [6]: 8.4%
Vomiting [6]: 11.5%
Weight decreased [6]: 6.6%
AE preferred term: Anaemia [7]: 55 (24.2) n (%)
AE preferred term: Arthralgia [7]: 43 (18.9) n (%)
AE preferred term: Asthenia [7]: 72 (31.7) n (%)
AE preferred term: Back pain [7]: 28 (12.3) n (%)
AE preferred term: COVID-19 [7]: 37 (16.3) n (%)
AE preferred term: Constipation [7]: 50 (22.0) n (%)
AE preferred term: Decreased appetite [7]: 48 (21.1) n (%)
AE preferred term: Diarrhoea [7]: 37 (16.3) n (%)
AE preferred term: Dry mouth [7]: 130 (57.3) n (%)
AE preferred term: Fatigue [7]: 52 (22.9) n (%)
AE preferred term: Nausea [7]: 71 (31.3) n (%)
AE preferred term: Oedema peripheral [7]: 19 (8.4) n (%)
AE preferred term: Vomiting [7]: 26 (11.5) n (%)
AE preferred term: Weight decreased [7]: 15 (6.6) n (%)
Adverse events (participants with at least one event) [7]: 223 (98.2) n (%)
Adverse events leading to discontinuation [7]: 13 (5.7) n (%)
Adverse events leading to discontinuation, Treatment-related [7]: 7 (3.1) n (%)
Adverse events leading to dose adjustment [7]: 8 (3.5) n (%)
Adverse events leading to dose interruption [7]: 27 (11.9) n (%)
Adverse events requiring additional therapy [7]: 162 (71.4) n (%)
Adverse events, Treatment-related [7]: 196 (86.3) n (%)
Fatal serious adverse events [7]: 4 (1.8) n (%)
Fatal serious adverse events, Treatment-related [7]: 0 n (%)
Serious adverse events [7]: 46 (20.3) n (%)
Serious adverse events, Treatment-related [7]: 7 (3.1) n (%)
AE preferred term: Anaemia [8]: 14 (6.2) n (%)
AE preferred term: Arthralgia [8]: 0 n (%)
AE preferred term: Asthenia [8]: 1 (0.4) n (%)
AE preferred term: Back pain [8]: 2 (0.9) n (%)
AE preferred term: COVID-19 [8]: 1 (0.4) n (%)
AE preferred term: Constipation [8]: 1 (0.4) n (%)
AE preferred term: Decreased appetite [8]: 0 n (%)
AE preferred term: Diarrhoea [8]: 0 n (%)
AE preferred term: Dry mouth [8]: 3 (1.3) n (%)
AE preferred term: Fatigue [8]: 0 n (%)
AE preferred term: Nausea [8]: 0 n (%)
AE preferred term: Oedema peripheral [8]: 0 n (%)
AE preferred term: Vomiting [8]: 0 n (%)
AE preferred term: Weight decreased [8]: 2 (0.9) n (%)
Adverse events (participants with at least one event) [8]: 78 (34.4) n (%)
Adverse events leading to discontinuation [8]: 8 (3.5) n (%)
Adverse events leading to discontinuation, Treatment-related [8]: 4 (1.8) n (%)
Adverse events leading to dose adjustment [8]: 3 (1.3) n (%)
Adverse events leading to dose interruption [8]: 13 (5.7) n (%)
Adverse events requiring additional therapy [8]: 48 (21.1) n (%)
Adverse events, Treatment-related [8]: 25 (11.0) n (%)
Fatal serious adverse events [8]: 4 (1.8) n (%)
Fatal serious adverse events, Treatment-related [8]: 0 n (%)
Serious adverse events [8]: 41 (18.1) n (%)
Serious adverse events, Treatment-related [8]: 6 (2.6) n (%)
Serious adverse event Acute kidney injury, All Grades [9]: 2 (0.9) n (%)
Serious adverse event Acute kidney injury, Grade >=3 [9]: 2 (0.9) n (%)
Serious adverse event Anaemia, All Grades [9]: 4 (1.8) n (%)
Serious adverse event Anaemia, Grade >=3 [9]: 3 (1.3) n (%)
Serious adverse event COVID-19, All Grades [9]: 1 (0.4) n (%)
Serious adverse event COVID-19, Grade >=3 [9]: 1 (0.4) n (%)
Serious adverse event Femur fracture, All Grades [9]: 2 (0.9) n (%)
Serious adverse event Femur fracture, Grade >=3 [9]: 2 (0.9) n (%)
Serious adverse event Haematuria, All Grades [9]: 0 n (%)
Serious adverse event Haematuria, Grade >=3 [9]: 0 n (%)
Serious adverse event Pain, All Grades [9]: 1 (0.4) n (%)
Serious adverse event Pain, Grade >=3 [9]: 1 (0.4) n (%)
Serious adverse event Pneumonia, All Grades [9]: 1 (0.4) n (%)
Serious adverse event Pneumonia, Grade >=3 [9]: 1 (0.4) n (%)
Serious adverse event Sepsis, All Grades [9]: 3 (1.3) n (%)
Serious adverse event Sepsis, Grade >=3 [9]: 3 (1.3) n (%)
Serious adverse event Spinal cord compression, All Grades [9]: 2 (0.9) n (%)
Serious adverse event Spinal cord compression, Grade >=3 [9]: 2 (0.9) n (%)
Serious adverse event Urinary retention, All Grades [9]: 1 (0.4) n (%)
Serious adverse event Urinary retention, Grade >=3 [9]: 1 (0.4) n (%)
Serious adverse event Urinary tract infection, All Grades [9]: 4 (1.8) n (%)
Serious adverse event Urinary tract infection, Grade >=3 [9]: 3 (1.3) n (%)
Serious adverse events: number of participants with at least one event, All Grades [10]: 46 (20.3) n (%)
Serious adverse events: number of participants with at least one event, Grade >=3 [10]: 41 (18.1) n (%)
